From ChEMBL document CHEMBL5727139, “Pyridine derivatives” (2018)
pIC50: −log10 of the molar value.

These compounds were tested against T1, Leucyl-cystinyl aminopeptidase (Rattus norvegicus, UniProt P97629) (assay: Inhibition Assay: The inventors have assumed that inhibition of nocturnal activity of placental leucine aminopeptidase (P-LAP), i.e. aminopeptidase that cleaves AVP, would maintain and/or increase an endogenous AVP level to enhance the antidiuretic effect, which would contribute to a decreased number of nocturnal voids, and have extensively studied compounds which inhibit P-LAP.).
T1 sequence (P97629 whole entry): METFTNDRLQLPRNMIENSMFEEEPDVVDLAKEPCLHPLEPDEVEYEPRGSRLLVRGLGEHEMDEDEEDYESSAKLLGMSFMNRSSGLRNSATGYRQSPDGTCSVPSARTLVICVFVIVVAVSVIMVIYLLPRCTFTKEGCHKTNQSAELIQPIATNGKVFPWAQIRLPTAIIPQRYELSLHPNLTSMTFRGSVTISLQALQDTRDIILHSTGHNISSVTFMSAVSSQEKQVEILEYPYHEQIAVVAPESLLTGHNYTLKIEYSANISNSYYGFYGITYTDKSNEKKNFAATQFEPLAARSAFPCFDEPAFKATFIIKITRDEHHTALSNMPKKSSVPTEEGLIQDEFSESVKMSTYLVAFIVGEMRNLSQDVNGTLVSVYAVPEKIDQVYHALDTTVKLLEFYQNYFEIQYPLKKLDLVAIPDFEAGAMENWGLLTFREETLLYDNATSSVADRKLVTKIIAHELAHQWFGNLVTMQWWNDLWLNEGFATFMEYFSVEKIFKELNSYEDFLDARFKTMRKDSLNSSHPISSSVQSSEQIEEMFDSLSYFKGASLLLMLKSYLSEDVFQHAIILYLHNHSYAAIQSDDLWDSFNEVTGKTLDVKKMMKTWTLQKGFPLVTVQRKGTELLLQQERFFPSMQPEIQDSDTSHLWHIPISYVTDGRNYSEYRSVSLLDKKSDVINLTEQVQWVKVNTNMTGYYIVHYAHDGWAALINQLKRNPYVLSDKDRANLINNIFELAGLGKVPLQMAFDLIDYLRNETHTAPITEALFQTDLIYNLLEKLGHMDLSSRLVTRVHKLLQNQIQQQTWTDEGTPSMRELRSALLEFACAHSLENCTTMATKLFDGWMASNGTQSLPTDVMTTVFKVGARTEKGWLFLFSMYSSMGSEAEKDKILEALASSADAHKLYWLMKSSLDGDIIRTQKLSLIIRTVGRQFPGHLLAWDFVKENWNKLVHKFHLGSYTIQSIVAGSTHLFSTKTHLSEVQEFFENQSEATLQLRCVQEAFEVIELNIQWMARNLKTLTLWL

pIC50 | Structure (SMILES)
9.24 | Cc1cnc(C[C@](O)(C(=O)O)[C@@H](N)CCC2CC2)cc1CCCC1CC1
7.70 | C=CCSC[C@H](N)[C@](O)(Cc1cc(CCCC2CC2)ccn1)C(=O)O
7.96 | CCCCCc1ccnc(C[C@](O)(C(=O)O)[C@@H](N)CC(C)C)c1
8.77 | CSC[C@H](N)[C@](O)(Cc1cc(CCCC2CC2)c(C)cn1)C(=O)O
6.43 | Cc1c(CCCC2CC2)ccnc1C[C@](O)(C(=O)O)[C@@H](N)CC(C)C

Further lines, the compound ahead of its results:

Structure (SMILES) | pIC50
CCCC1CC1c1ccnc(C[C@](O)(C(=O)O)[C@@H](N)CC(C)C)c1 (stereo partly drawn) | 7.72
COc1ccccc1CCc1ccnc(C[C@](O)(C(=O)O)[C@@H](N)CC(C)C)c1 | 7.92
CC(C)C[C@H](N)[C@](O)(Cc1nccc2c1CCC(CC1CC1)C2)C(=O)O (stereo partly drawn) | 7.82
